Columns and labels:
[1] = test system: MET pathway in NCI-H596 cells; assay: MET and ERK phosphorylation in NCI-H596 cells, immunoblot; type: cell-based, human; conditions: fold change relative to control, HGF 50 ng/ml, antibody 10 μg/ml
Procedure: 250,000 NCI-H596 cells were seeded in a 12 well plate and cultured in RPMI Media supplemented with 10% FBS. […] The cells were subsequently incubated in 5% CO2 at 37° C. After 0, 2, 6 or 18 hours, cell lysates were prepared, protein content was normalized and immunoblot analysis was performed. MET phosphorylation and ERK phosphorylation were quantified with the ImageJ image processing program (T. Collins, BioTechniques 43: S25-S30, 2007). Phosphorylation levels were normalized to the Tubulin loading control and are expressed as fold change relative to control treatment.

NCI-H596 cells = assay: NCI-H596 growth in soft agar, AlamarBlue, two weeks; type: cell-based, human; conditions: antibody 5 μg/ml (combination 2.5 μg/ml each), HGF 100 ng/mL
Procedure: The effect of a MET×MET bispecific antibody on the growth of human non-small cell lung cancer (NSCLC) cells (NCI-H596) was assessed in vitro. 10,000 NCI-H596 lung adenosquamous carcinoma cells (Nair et al., J. Nat'l. Cancer Inst. 86(5): 378-383, 1994) were seeded in 96 well plates on a layer of 0.66% agar in media supplemented with 1% fetal bovine serum (FBS). The cells were cultured in RPMI 1640 media supplemented with 1% FBS with 0.3% agarose. […] The cells were subsequently incubated with 5% CO2 at 37° C. After two weeks, relative cell growth was determined by measuring the reduction of the indicator dye, ALAMAR BLUE® (Thermo Fischer Scientific, Waltham, Mass.), to its highly fluorescent form in a SPECTRAMAX® M3 plate reader (Molecular Devices, Sunnyvale, Calif.). Increasing fluorescence correlates with cell growth. Table 18 and FIG. 14 depict the relative NCI-H596 cell growth for each antibody treatment normalized to control (no treatment) NCI-H596 cell growth.

“HGF: hepatocyte growth factor, MET agonist ligand [reference compound]” was tested, and the “Phospho-ERK (mean ± SD)” value ([1]; 2 hours) was 16.7 ± 1.6, the “Phospho-MET (mean ± SD)” value ([1]; 2 hours) was 202.3 ± 38.7 and the “Phospho-ERK (mean ± SD)” value ([1]; 6 hours) was 12.4 ± 3.9. For the same substance, the “Phospho-MET (mean ± SD)” value ([1]; 6 hours) was 38.9 ± 4.9, the “Phospho-ERK (mean ± SD)” value ([1]; 18 hours) was 12.4 ± 0.9 and the “Phospho-MET (mean ± SD)” value ([1]; 18 hours) was 59.2 ± 24.4. For the same substance, the “Relative Cell Growth (n = 3)” value (NCI-H596 cells) was 7.877.
